Laboratory results taken from patent US20230263822A1, “MODULATION OF FACTOR 11 EXPRESSION” (Ionis Pharmaceuticals, Inc., priority 2008, published 2023).
Strand notation (5' to 3'): a small letter for the sugar, then the base; units joined by * are phosphorothioate-linked, units joined directly phosphodiester-linked; [ ] holds rarer units or linkages, { } end groups; capitals alone tell only the bases. e = 2'-O-(2-methoxyethyl) (MOE); [5mC] = 5-methylcytosine; d = 2'-deoxy (DNA)

Legend:
blood coagulation = assay: PT and aPTT assay in cynomolgus monkeys (Example 46); type: in vivo; settings: for PT ratio (INR) / aPTT ratio relative to PBS group: platelet poor plasma, relative to PBS group
Procedure: (§1) Groups, each consisting of two male and two female monkeys, were injected subcutaneously with 25 mg/kg of ISIS 416850, ISIS 449709, ISIS 445522, ISIS 449710, ISIS 449707, ISIS 449711, ISIS 449708, 416858, and ISIS 445531. Antisense oligonucleotide was administered to the monkeys at 25 mg/kg three times per week for week 1 and 25 mg/kg twice per week for weeks 2 to 8. A control group, consisting of two male and two female monkeys was injected subcutaneously with PBS according to the same dosing regimen. Body weights were taken 14 days and 7 days before the start of treatment and were then measured weekly throughout the treatment period. Blood samples were collected 14 days and 5 days before the start of treatment and subsequently several times during the dosing regimen for PT and aPTT measurements, and measurement of various hematologic factors. On day 55, the monkeys were euthanized by exsanguination while under deep anesthesia, and organs harvested for further analysis.
PT and aPTT were measured using platelet poor plasma (PPP) from […] treated with ISIS oligonucleotides. PT and aPTT values are provided in Tables 148 and 149 and are reported as International Normalized Ratio (INR) values. INR values for PT and aPTT were determined by dividing the PT or aPTT value for each experimental group by the PT or aPTT for the PBS treated group. This ratio was then raised to the power of the International Sensitivity Index (ISI) of the tissue factor used. […] Therefore, antisense reduction of Factor 11 with these ISIS oligonucleotides is useful for inhibiting the formation of a thrombus or clot in response to an abnormal vessel wall, but not in response to tissue injury.

[1] = Body and organ weights of cynomolgus monkeys (Example 46); type: in vivo; set-up: Liver weight / Spleen weight / Kidney weight: unit not given here
Procedure: as §1
Organ weights were taken after the animals were euthanized on day 55, and livers, kidneys and spleens were harvested.

Substance	PT ratio (INR) (blood coagulation; Day 10)	aPTT ratio relative to PBS group (blood coagulation; Day 10)	PT ratio (INR) (blood coagulation; Day 17)	aPTT ratio relative to PBS group (blood coagulation; Day 17)	PT ratio (INR) (blood coagulation; Day 24)	aPTT ratio relative to PBS group (blood coagulation; Day 24)	PT ratio (INR) (blood coagulation; Day 31)	aPTT ratio relative to PBS group (blood coagulation; Day 31)	PT ratio (INR) (blood coagulation; Day 38)	aPTT ratio relative to PBS group (blood coagulation; Day 38)	PT ratio (INR) (blood coagulation; Day 45)	aPTT ratio relative to PBS group (blood coagulation; Day 45)	PT ratio (INR) (blood coagulation; Day 52)	aPTT ratio relative to PBS group (blood coagulation; Day 52)	PT ratio (INR) (blood coagulation; Day 55)	aPTT ratio relative to PBS group (blood coagulation; Day 55)	PT ratio (INR) (blood coagulation; Day −5)	aPTT ratio relative to PBS group (blood coagulation; Day −5)	PT ratio (INR) (blood coagulation; Day −14)	aPTT ratio relative to PBS group (blood coagulation; Day −14)	other results
ISIS 445531: 5-8-5 or 6-8-6 MOE microwalk gapmer (Table 44) (antisense eG*eG*e[5mC]*eA*eT*dT*dG*dG*dT*dG*d[5mC]*dA*d[5mC]*eA*eG*eT*eT*eT)	1.00	0.95	1.06	1.05	1.02	1.00	1.04	1.07	1.03	1.06	1.01	1.13	1.04	1.15	1.06	1.19	1.00	0.89	1.06	1.00	body weight ([1]; day 1): 2125 g; body weight ([1]; day 8): 2119 g; body weight ([1]; day 15): 2109 g; body weight ([1]; day 22): 2143 g; body weight ([1]; day 29): 2148 g; body weight ([1]; day 36): 2191 g; body weight ([1]; day 43): 2233 g; body weight ([1]; day 50): 2197 g; Kidney weight ([1]; day 55, after euthanasia): 0.49; Liver weight ([1]; day 55, after euthanasia): 2.8; Spleen weight ([1]; day 55, after euthanasia): 0.24; body weight ([1]; day −7): 2092 g; body weight ([1]; day −14): 2079 g
ISIS 445522: 5-8-5 or 6-8-6 MOE microwalk gapmer (Table 44) (antisense eG*e[5mC]*eA*e[5mC]*eA*dG*dT*dT*dT*d[5mC]*dT*dG*dG*e[5mC]*eA*eG*eG*e[5mC])	0.95	1.06	0.96	1.10	0.94	1.14	0.96	1.25	0.97	1.32	0.96	1.39	0.98	1.39	1.01	1.42	0.94	0.91	1.00	0.96	aPTT (blood coagulation; cynomolgus monkeys, 25 mg/kg): significantly prolonged; body weight ([1]; day 1): 2047 g; body weight ([1]; day 8): 2094 g; body weight ([1]; day 15): 2092 g; body weight ([1]; day 22): 2114 g; body weight ([1]; day 29): 2125 g; body weight ([1]; day 36): 2121 g; body weight ([1]; day 43): 2142 g; body weight ([1]; day 50): 2127 g; Kidney weight ([1]; day 55, after euthanasia): 0.55; Liver weight ([1]; day 55, after euthanasia): 2.6; Spleen weight ([1]; day 55, after euthanasia): 0.23; body weight ([1]; day −7): 2042 g; body weight ([1]; day −14): 2050 g
ISIS 449710: 3-8-3, 4-8-4, 2-10-2, 3-10-3 or 4-10-4 MOE microwalk gapmer (Table 46) (antisense e[5mC]*eA*e[5mC]*dA*dG*dT*dT*dT*d[5mC]*dT*dG*dG*d[5mC]*eA*eG*eG)	0.98	1.00	1.00	0.97	0.97	1.00	0.98	1.04	0.99	1.02	0.97	1.06	0.98	1.03	1.06	1.07	0.96	0.98	1.03	1.07	body weight ([1]; day 1): 2131 g; body weight ([1]; day 8): 2120 g; body weight ([1]; day 15): 2145 g; body weight ([1]; day 22): 2177 g; body weight ([1]; day 29): 2149 g; body weight ([1]; day 36): 2180 g; body weight ([1]; day 43): 2227 g; body weight ([1]; day 50): 2201 g; Kidney weight ([1]; day 55, after euthanasia): 0.58; Liver weight ([1]; day 55, after euthanasia): 2.6; Spleen weight ([1]; day 55, after euthanasia): 0.24; body weight ([1]; day −7): 2114 g; body weight ([1]; day −14): 2097 g
ISIS 449709: 3-8-3, 4-8-4, 2-10-2, 3-10-3 or 4-10-4 MOE microwalk gapmer (Table 46) (antisense eG*e[5mC]*eA*e[5mC]*dA*dG*dT*dT*dT*d[5mC]*dT*dG*dG*d[5mC]*eA*eG*eG*e[5mC])	0.95	0.99	0.95	1.03	0.95	1.05	0.95	1.08	0.97	1.08	0.97	1.15	0.99	1.09	1.03	1.17	0.96	0.91	1.00	0.99	body weight ([1]; day 1): 2112 g; body weight ([1]; day 8): 2075 g; body weight ([1]; day 15): 2085 g; body weight ([1]; day 22): 2117 g; body weight ([1]; day 29): 2068 g; body weight ([1]; day 36): 2064 g; body weight ([1]; day 43): 2106 g; body weight ([1]; day 50): 2147 g; Kidney weight ([1]; day 55, after euthanasia): 0.57; Liver weight ([1]; day 55, after euthanasia): 2.6; Spleen weight ([1]; day 55, after euthanasia): 0.21; body weight ([1]; day −7): 2093 g; body weight ([1]; day −14): 2044 g
ISIS 449711: 3-8-3, 4-8-4, 2-10-2, 3-10-3 or 4-10-4 MOE microwalk gapmer (Table 46) (antisense eA*e[5mC]*dA*dG*dT*dT*dT*d[5mC]*dT*dG*dG*d[5mC]*eA*eG)	0.94	0.92	0.95	0.90	0.94	0.92	0.98	0.89	1.02	0.93	1.01	0.94	1.00	0.92	1.07	0.96	0.95	0.96	1.00	0.94	Spleen weight ([1]; cynomolgus monkeys, 25 mg/kg, day 55, compared to the PBS control): caused increase in spleen weight; body weight ([1]; day 1): 2123 g; body weight ([1]; day 8): 2123 g; body weight ([1]; day 15): 2103 g; body weight ([1]; day 22): 2171 g; body weight ([1]; day 29): 2203 g; body weight ([1]; day 36): 2227 g; body weight ([1]; day 43): 2251 g; body weight ([1]; day 50): 2227 g; Kidney weight ([1]; day 55, after euthanasia): 0.54; Liver weight ([1]; day 55, after euthanasia): 2.6; Spleen weight ([1]; day 55, after euthanasia): 0.32; body weight ([1]; day −7): 2105 g; body weight ([1]; day −14): 2049 g
ISIS 449708: 3-8-3, 4-8-4, 2-10-2, 3-10-3 or 4-10-4 MOE microwalk gapmer (Table 46) (antisense eA*e[5mC]*eA*dG*dT*dT*dT*d[5mC]*dT*dG*dG*e[5mC]*eA*eG)	0.98	1.06	1.00	1.05	0.95	1.01	1.06	1.09	0.99	1.06	0.99	1.06	0.99	1.08	1.04	1.11	0.95	1.01	1.03	1.07	body weight ([1]; day 1): 2130 g; body weight ([1]; day 8): 2148 g; body weight ([1]; day 15): 2125 g; body weight ([1]; day 22): 2110 g; body weight ([1]; day 29): 2095 g; body weight ([1]; day 36): 2100 g; body weight ([1]; day 43): 2125 g; body weight ([1]; day 50): 2076 g; Kidney weight ([1]; day 55, after euthanasia): 0.60; Liver weight ([1]; day 55, after euthanasia): 2.6; Spleen weight ([1]; day 55, after euthanasia): 0.19; body weight ([1]; day −7): 2163 g; body weight ([1]; day −14): 2096 g
